Reference: patent US20240309016A1, “MACROCYCLIC HETEROCYCLE COMPOUNDS AND USE THEREOF” (TAKEDA PHARMACEUTICAL COMPANY LIMITED, priority 2023, published 2024)

Molecular target: T1, human OX2 receptor (Homo sapiens, UniProt O43614)
T1 construct: expressed in transfected cells
T1 sequence (O43614 1-444): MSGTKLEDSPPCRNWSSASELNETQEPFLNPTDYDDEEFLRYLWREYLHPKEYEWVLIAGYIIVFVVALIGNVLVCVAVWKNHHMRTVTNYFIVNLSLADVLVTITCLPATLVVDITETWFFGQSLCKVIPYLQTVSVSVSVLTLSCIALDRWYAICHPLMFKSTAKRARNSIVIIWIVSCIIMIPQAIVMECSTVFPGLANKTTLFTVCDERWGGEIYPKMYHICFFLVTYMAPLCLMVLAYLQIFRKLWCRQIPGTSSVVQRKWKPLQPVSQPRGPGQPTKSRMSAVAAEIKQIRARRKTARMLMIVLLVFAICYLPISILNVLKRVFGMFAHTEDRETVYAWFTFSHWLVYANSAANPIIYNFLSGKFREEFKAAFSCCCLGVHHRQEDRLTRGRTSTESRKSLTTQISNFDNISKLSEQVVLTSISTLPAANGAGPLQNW
Experiment: Measurement of orexin type 2 receptor agonist activity (Experimental Example 2; Fluo-4 AM calcium fluorescence, FDSS μCELL)
Assay type: cell-based
Settings: compound at 3 μM; CHO cells expressing human OX2 receptor; DMSO = 0%, 10 nM orexin A (human) = 100%
Method: In order to obtain cell clones that stably express human orexin type 2 receptor, human orexin type 2 (residues 1-444, NCBI Reference Sequence: AK314279) was constructed in a pcDNA3.1 (+) vector (Invitrogen) to express in mammalian cells. This plasmid DNA was transfected into CHO-K1 cells by electroporation, and stable clones were obtained by limiting dilution using resistance to G418 as a selection marker.
CHO cells in which human OX2 receptor was forcibly expressed were seeded at 10,000 cells/well into a 384-well black transparent bottom plate (BD falcon), and were incubated at 37° C., 5% CO2 for 1 day after incubation at room temperature for 30 minutes. After removing the cell plate medium, assay buffer containing calcium indicator A (HBSS (Thermo Fisher Scientific), 20 mM HEPES (Thermo Fisher Scientific), 0.1% BSA (Sigma-Aldrich), 2.5 μg/mL Fluo-4 AM (Dojin Kagaku), 0.08% Pluronic F127 (Dojin Kagaku), 1.25 mM probenecid (Dojin Kagaku)) was added at 30 μL/well. After incubation in a 5% CO2 incubator at 37° C. for 30 minutes, it was incubated at room temperature for another 30 minutes. Add 10 μL/well of the test compound diluted with assay buffer B (HBSS, 20 mM HEPES, 0.1% BSA), and use FDSS μCELL (Hamamatsu Photonics) to measure the fluorescence value every 1 second for 1 minute, and then every 2 seconds for 1 minute. It was measured for 1 minute and 40 seconds. The amount of fluorescence value when DMSO is added instead of the test compound is defined as 0%, and the amount of fluorescence value when orexin A (human) (Peptide Institute) with a final concentration of 10 nM is added is defined as 100%. The activity (%) of the test compound was calculated. Table 2-1, 2-2, 2-3, and 2-4 show the activity of each compound at a concentration of 3 μM.

Row | OX2R agonist activity (3 μM, %) [%] | SMILES
1 | 107 | CS(=O)(=O)N[C@@H]1[C@@H]2Cc3cccc(c3F)Oc3nc(ccc3C(F)F)CNC(=O)N2CC1(F)F [Example 41, N-[(15aS,16R)-7-(difluoromethyl)-17,17,20-trifluoro-1-oxo-2,3,15a,16,17,18-hexahydro-1H,15H-8,4-(azeno)-10,14-(metheno)pyrrolo[1,2-j][1,8,10]oxadiazacyclo-heptadecin-16-yl]methanesulfonamide]
2 | 101 | Cc1ccc2nc1Oc1cccc(c1F)C[C@H]1[C@@H](NS(=O)(=O)C(F)F)C(F)(F)CN1C(=O)NC2 [Example 43, 1,1-difluoro-N-[(15aS,16R)-17,17,20-trifluoro-7-methyl-1-oxo-2,3,15a,16,17,18-hexahydro-1H,15H-4,8-(azeno)-10,14-(metheno)pyrrolo[1,2-j][1,8,10]oxadiazacyclo-heptadecin-16-yl]methanesulfonamide]
3 | 105 | CCS(=O)(=O)N[C@@H]1[C@@H]2Cc3cccc(c3F)Oc3nc(ccc3C)OCC(=O)N2CC1(F)F [Example 45, N-[(15aS,16R)-17,17,20-trifluoro-7-methyl-1-oxo-1,2,15a,16,17,18-hexahydro-15H-4,8-(azeno)-14,10-(metheno)pyrrolo[1,2-d][1,12,4]dioxazacyclo-heptadecin-16-yl]ethanesulfonamide]
4 | 99 | COCS(=O)(=O)N[C@@H]1[C@@H]2Cc3cccc(c3F)Oc3nc(ccc3C)CNC(=O)N2CC1(F)F [Example 46, 1-methoxy-N-[(15aS,16R)-17,17,20-trifluoro-7-methyl-1-oxo-2,3,15a,16,17,18-hexahydro-1H,15H-4,8-(azeno)-14,10-(metheno)pyrrolo[1,2-j][1,8,10]oxadiazacyclo-heptadecin-16-yl]methanesulfonamide]
5 | 97 | CCS(=O)(=O)N[C@@H]1[C@@H]2Cc3cccc(c3F)Oc3nc(ccc3C)C(C)NC(=O)N2CC1(F)F (stereo partly drawn) [Example 49, N-[(15aS,16R)-17,17,20-trifluoro-3,7-dimethyl-1-oxo-2,3,15a,16,17,18-hexahydro-1H,15H-4,8-(azeno)-14,10-(metheno)pyrrolo[1,2-j][1,8,10]oxadiazacyclo-heptadecin-16-yl]ethanesulfonamide (optical isomer)]
6 | 88 | CCS(=O)(=O)N[C@@H]1[C@@H]2Cc3cccc(c3F)Oc3ccc(F)c(n3)CNC(=O)N2CC1(F)F [Example 50, N-[(15aS,16R)-5,17,17,20-tetrafluoro-1-oxo-2,3,15a,16,17,18-hexahydro-1H,15H-4,8-(azeno)-14,10-(metheno)pyrrolo[1,2-j][1,8,10]oxadiazacyclo-heptadecin-16-yl]ethanesulfonamide]
7 | 93 | Cc1cnc2nc1Oc1cccc(c1F)C[C@H]1[C@@H](NS(C)(=O)=O)C(F)(F)CN1C(=O)C1CCN21 (stereo partly drawn) [Example 52, N-[(15aS,16R)-17,17,21-trifluoro-7-methyl-20-oxo-1,2,15a,16,17,18,20,20a-octahydro-15H-4,8-(azeno)-10,14-(metheno)azeto[1,2-g]pyrrolo[1,2-j][1,5,7,10]oxatriazacyclo-heptadecin-16-yl]methanesulfonamide (optical isomer)]
8 | 108 | CN1Cc2ccc(Cl)c(n2)Oc2cccc(c2F)C[C@H]2[C@@H](NS(C)(=O)=O)C(F)(F)CN2C1=O [Example 57, N-[(15aS,16R)-7-chloro-17,17,20-trifluoro-2-methyl-1-oxo-2,3,15a,16,17,18-hexahydro-1H,15H-4,8-(azeno)-14,10-(metheno)pyrrolo[1,2-j][1,8,10]oxadiazacyclo-heptadecin-16-yl]methanesulfonamide]
9 | 106 | O=C1NCc2nc(c(Cl)cc2F)Oc2cccc(c2F)C[C@H]2[C@@H](NS(=O)(=O)C3CC3)C(F)(F)CN12 [Example 58, N-[(15aS,16R)-7-chloro-5,17,17,20-tetrafluoro-1-oxo-2,3,15a,16,17,18-hexahydro-1H,15H-4,8-(azeno)-14,10-(metheno)pyrrolo[1,2-j][1,8,10]oxadiazacyclo-heptadecin-16-yl]cyclopropanesulfonamide]
10 | 106 | Cc1cnc2nc1Oc1cccc(c1F)C[C@H]1[C@@H](NS(C)(=O)=O)C(F)(F)CN1C(=O)[C@@H]1CCCN21 [Example 59, N-[(16aS,17R,21aS)-18,18,22-trifluoro-8-methyl-21-oxo-2,3,16a,17,18,19,21,21a-octahydro-1H,16H-5,9-(azeno)-11,15-(metheno)dipyrrolo[1,2-g:1′,2′-j][1,5,7,10]oxatriazacyclo-heptadecin-17-yl]methanesulfonamide]

More lines, now with the values behind:

Row | SMILES | OX2R agonist activity (3 μM, %) [%]
11 | CS(=O)(=O)N[C@H]1[C@@H](F)CN2C(=O)OCc3ccc(C(F)F)c(n3)Oc3cccc(c3F)C[C@@H]12 [Example 38, N-[(15aS,16R,17S)-7-(difluoromethyl)-17,20-difluoro-1-oxo-15a,16,17,18-tetrahydro-1H,3H,15H-8,4-(azeno)-10,14-(metheno)pyrrolo[1,2-c][1,11,3]dioxazacyclo-heptadecin-16-yl]methanesulfonamide] | 80
12 | CCS(=O)(=O)N[C@H]1[C@@H](F)CN2C(=O)NCc3ccc(Cl)c(c3)Oc3cccc(c3F)C[C@@H]12 [Example 39, N-[(15aS,16R,17S)-7-chloro-17,20-difluoro-1-oxo-2,3,15a,16,17,18-hexahydro-1H,15H-4,8:14,10-di(metheno)pyrrolo[1,2-j][1,8,10]oxadiazacyclo-heptadecin-16-yl]ethanesulfonamide] | 105
13 | Cc1ccc2nc1Oc1cccc(c1)C[C@H]1[C@@H](NS(C)(=O)=O)CCN1C(=O)N(C)C2 [Example 40, N-[(15aS,16S)-2,7-dimethyl-1-oxo-2,3,15a,16,17,18-hexahydro-1H,15H-4,8-(azeno)-10,14-(metheno)pyrrolo[1,2-j][1,8,10]oxadiazacyclo-heptadecin-16-yl]methanesulfonamide] | 103
14 | CCS(=O)(=O)N[C@H]1[C@@H](F)CN2C(=O)NCc3ccc(C)c(n3)Oc3cccc(c3)C[C@@H]12 [Example 42, N-[(15aS,16R,17S)-17-fluoro-7-methyl-1-oxo-2,3,15a,16,17,18-hexahydro-1H,15H-4,8-(azeno)-14,10-(metheno)pyrrolo[1,2-j][1,8,10]oxadiazacyclo-heptadecin-16-yl]ethanesulfonamide] | 101
15 | CS(=O)(=O)N[C@H]1[C@@H](F)CN2C(=O)NCc3cc(c(Cl)cn3)Oc3cccc(c3F)C[C@@H]12 [Example 44, N-[(15aS,16R,17S)-7-chloro-17,20-difluoro-1-oxo-2,3,15a,16,17,18-hexahydro-1H,15H-4,8:14,10-di(metheno)pyrrolo[1,2-j][1,5,8,10]oxatriazacyclo-heptadecin-16-yl]methanesulfonamide] | 84
16 | CCS(=O)(=O)N[C@H]1[C@@H](F)CN2C(=O)NCc3ccc(Cl)c(n3)Oc3cccc(c3)C[C@@H]12 [Example 47, N-[(15aS,16R,17S)-7-chloro-17-fluoro-1-oxo-2,3,15a,16,17,18-hexahydro-1H,15H-4,8-(azeno)-14,10-(metheno)pyrrolo[1,2-j][1,8,10]oxadiazacyclo-heptadecin-16-yl]ethanesulfonamide] | 92
17 | CCS(=O)(=O)N[C@@H]1[C@@H]2Cc3cccc(c3F)Oc3nc(ccc3C)N(C)CC(=O)N2CC1(F)F [Example 48, N-[(15aS,16R)-17,17,20-trifluoro-3,7-dimethyl-1-oxo-2,3,15a,16,17,18-hexahydro-1H,15H-4,8-(azeno)-14,10-(metheno)pyrrolo[1,2-j][1,7,10]oxadiazacyclo-heptadecin-16-yl]ethanesulfonamide] | 67
18 | CCS(=O)(=O)N[C@H]1[C@@H](F)CN2C(=O)NCc3ncc(C)c(n3)Oc3cccc(c3F)C[C@@H]12 [Example 55, N-[(15aS,16R,17S)-17,20-difluoro-7-methyl-1-oxo-2,3,15a,16,17,18-hexahydro-1H,15H-4,8-(azeno)-10,14-(metheno)pyrrolo[1,2-j][1,5,8,10]oxatriazacyclo-heptadecin-16-yl]ethanesulfonamide] | 107
